What is called IC50 is the midpoint of a concentration-inhibition curve.

IC50 data for eight compounds are collected here from patent US20230089524A1, “COMPOSITIONS FOR USE IN THE INHIBITION OF DIHYDROOROTATE DEHYDROGENASE” (OHIO STATE INNOVATION FOUNDATION, priority 2019, published 2023).

One assay deals with T1, h-DHODH (Homo sapiens, UniProt Q02127).
T1 construct: made in house
The assay is described as follows: DHODH enzymatic assay (DCIP reduction at 600 nm). The note with it: recombinant human enzyme, 25° C. The format is biochemical. As to the method:
DHODH Enzymatic Assay: DHODH activity was determined at 25° C. following the reduction of 2,6-dichloroindophenol sodium salt (DCIP) at 600 nm (ε=18 800 M^−1 cm^−1) on a spectrophotometer. The reaction medium used contained 50 mM Tris-HCl, pH 8.0, 0.1% Triton X-100, 0.1 mM LDHO, 0.025 mM CoQ1, and 0.06 mM DCIP. The reaction was started by addition of the enzyme. The inhibitory potency of the compounds was evaluated by measuring the initial velocity of the reaction either in the absence or in the presence of the compounds at the indicated concentrations. The DHODH enzyme used was the recombinant human enzyme prepared as previously described (Hélène Munier-Lehmann, et al., J. Med. Chem. 2015, 58:860-877).
(§1) Biological Activity. Cell proliferation assays were carried out using the MTS assay described herein using an AML cell line (i.e., OCI-AM L3) as described above. The assays were carried out in a blinded fashion. Assays were also carried out to assess the effect of representative disclosed compounds on DHODH activity.

A further assay deals with OCI-AML3 cell line. The assay can be described thus: MTS assay for cell growth/viability. It is filed as cell-based. The note with it: Homo sapiens. As to the method: MTS assay for cell growth/viability: Mitochondrial activity was measured to determine cell proliferation using an MTS assay (tetrazolium dye 3-[4,5-dimethylthiazol-2-yl]-2,5-diphenyl-tetrazolium bromide). Metabolically active cells convert MTS tetrazolium salt into a purple formazan product that is soluble in tissue culture medium. The amount of formazan measured at 490 nm absorbance is proportional to the number of proliferating cells. MTS assays in AML cell lines were carried out with 20K cells plated per well in 96-well plates with Cpd3 or brequinar in a dose series ranging from 0.0001 to 10 μM. Triplicate wells were set up for each condition. At 96 hours, the MTS reagent was added and after approximately 4 hours the plates were read in a spectrophotometer.
as §1
(Tetrazolium assays rely on reduction of a dye to a coloured formazan, in cell work by metabolically active cells.)

Setting [1] is: OCI-AML-3, 96 hours, read-out: OCI-AML3 cell line IC50.
[2] abbreviates: OCI-AML-3, read-out: growth arrest in the OCI-AML3 cell line, IC50.

Where two headings read alike, the source gives them in different places.

T1 sequence (Q02127 whole entry): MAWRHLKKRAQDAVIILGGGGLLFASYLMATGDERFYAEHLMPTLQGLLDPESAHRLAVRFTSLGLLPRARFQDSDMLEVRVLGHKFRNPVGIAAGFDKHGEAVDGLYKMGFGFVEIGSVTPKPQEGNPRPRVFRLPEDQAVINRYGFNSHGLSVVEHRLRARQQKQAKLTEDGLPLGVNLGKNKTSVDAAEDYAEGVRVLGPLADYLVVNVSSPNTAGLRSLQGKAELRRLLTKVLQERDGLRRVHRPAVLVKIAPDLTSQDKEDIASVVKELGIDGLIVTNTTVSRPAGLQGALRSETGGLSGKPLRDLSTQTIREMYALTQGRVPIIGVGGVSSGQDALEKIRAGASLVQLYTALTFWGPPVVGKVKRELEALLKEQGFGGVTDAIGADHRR

As for `CCOc1ccc(-c2csc(-c3cc(C(=O)O)c4cc(F)ccc4n3)n2)cc1` [Cpd5, 2-(4-(4-ethoxyphenyl)thiazol-2-yl)-6-fluoroquinoline-4-carboxylic acid], the figures for the IC50 on h-DHODH and in the assay on OCI-AML3 cell line (setting [1]) were 524 nM and 7410 nM, respectively.
`CCOc1ccc(-c2nc(-c3cc(C(=O)O)c4cc(F)ccc4n3)cs2)cc1` [Cpd7]: the values for the IC50 on h-DHODH and in the assay with OCI-AML3 cell line (setting [1]) were 85 nM and 4920 nM, respectively.
Regarding `CCOc1cccc(-c2csc(-c3cc(C(=O)O)c4cc(F)ccc4n3)c2)c1` [Cpd3, 2-(4-(3-ethoxyphenyl)thiophen-2-yl)-6-fluoroquinoline-4-carboxylic acid], the IC50 was 200 nM at h-DHODH and 10900 nM in the assay on OCI-AML3 cell line (setting [1]).
As to `CCOc1ccc(-c2ccc(-c3cc(C(=O)O)c4cc(F)ccc4n3)s2)cc1` [Cpd2, 2-(5-(4-ethoxyphenyl)thiophen-2-yl)-6-fluoroquinoline-4-carboxylic acid], the IC50 was 212 nM on h-DHODH, 790 nM with OCI-AML3 cell line (setting [1]) and 410 to 790 nM in the assay with OCI-AML3 cell line (setting [2]).
Regarding `CCOc1cccc(-c2ccc(-c3cc(C(=O)O)c4cc(F)ccc4n3)s2)c1` [Cpd4, 2-(5-(3-ethoxyphenyl)thiophen-2-yl)-6-fluoroquinoline-4-carboxylic acid], the results for the IC50 on h-DHODH and in the assay on OCI-AML3 cell line (setting [1]) were 223 nM and 3350 nM, respectively.
For `CCOc1ccc(-c2cnc(-c3cc(C(=O)O)c4cc(F)ccc4n3)s2)cc1` [Cpd6, 2-(5-(4-ethoxyphenyl)thiazol-2-yl)-6-fluoroquinoline-4-carboxylic acid] the same measures were 13900 nM and over 10000 nM.
For `CCOc1ccc(-c2ncc(-c3cc(C(=O)O)c4cc(F)ccc4n3)s2)cc1` [Cpd8, 2-(2-(4-ethoxyphenyl)thiazol-5-yl)-6-fluoroquinoline-4-carboxylic acid] the same measures were 472 nM and over 10000 nM.
As to `CCOc1ccc(-c2csc(-c3cc(C(=O)O)c4cc(F)ccc4n3)c2)cc1` [Cpd1, 2-(4-(4-ethoxyphenyl)thiophen-2-yl)-6-fluoroquinoline-4-carboxylic acid], the IC50 at h-DHODH was 58 nM; in the assay with OCI-AML3 cell line (setting [1]), 413 nM; in the assay on OCI-AML3 cell line (setting [2]), 410 to 790 nM.
